1 molecule from patent US10434090B2, “Pharmaceutical composition containing a hypomethylating agent and a histone deacetylase inhibitor” (NIMBLE EPITECH, LLC, priority 2009, dated 2019) can be followed below.

For this data set the following is noted: reservoir patch, drug at saturation, cladribine in ethanol/DMSO (50/50), entinostat in ethanol/water (2/1), human cadaver epidermis.

Protocol: A feasibility study of transdermal delivery of cladribine and HDAC inhibitors was conducted using the Franz Cell Method. The scope of the ongoing study is to determine the passive transdermal diffusion rate (passive perfusion) of cladribine and multiple HDAC inhibitors for creation of continuous transdermal delivery for induction therapy.
Cladribine was mixed with about 2 percent of a concentration of a thickener comprising a cellulose component to thicken the cladribine composition.
All testing was performed in an incubator at 32 degrees Celsius.
Round pieces of human cadaveric skin were cut out. The patches were placed on top of the skin and mounted in the Franz Cells between the donor compartment and the receiver compartments of the cell. The two compartments were tightened together with a screw-on pinch clamp.
The results of transdermal flux were graphed as a function of time.

For `Nc1nc(Cl)nc2c1ncn2[C@H]1C[C@H](O)[C@@H](CO)O1` [Cladribine], the “lag time before sustained transdermal delivery” value was 10 h. Where the note is “32 degrees Celsius, 24 hour”, this molecule had an optimum transdermal flux of 170 μg/cm^2/day.
